Measured values reported in PubChem BioAssay (NCI).
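In this assay, cells in 96-well plates receive the compound at five concentrations for 48 hours. Endpoints are linearly interpolated between the surrounding concentrations. GI50 marks 50% less growth. The concentration for full growth arrest is given as TGI.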

Legend:
Experiment in all cases: growth of human tumour cells (NCI), 48 h
[1] = test system: SK-MEL-28 melanoma
[2] = test system: DU-145 prostate
[3] = test system: SF-539 CNS
[4] = test system: A549 NSCLC
[5] = test system: OVCAR-8 ovarian
[6] = test system: SF-295 CNS
[7] = test system: MALME-3M melanoma
[8] = test system: T-47D breast
[9] = test system: NCI-H522 lung
[10] = test system: HOP-92 NSCLC
[11] = test system: HOP-62 NSCLC
[12] = test system: IGROV1 ovarian
[13] = test system: KM12 colon
[14] = test system: TK-10 renal
[15] = test system: EKVX NSCLC
[16] = test system: OVCAR-5 ovarian
[17] = test system: CCRF-CEM leukemia
[18] = test system: BT-549 breast
[19] = test system: COLO 205 colon
[20] = test system: OVCAR-3 ovarian
[21] = test system: MDA-MB-231 breast
[22] = test system: NCI-H460 lung
[23] = test system: OVCAR-4 ovarian
[24] = test system: A498 renal
[25] = test system: UACC-62 melanoma
[26] = test system: MOLT-4 leukemia
[27] = test system: MDA-MB-435
[28] = test system: UO-31 renal
[29] = test system: SN12C renal
[30] = test system: HCT-15 colon
[31] = test system: MCF7 breast
[32] = test system: 786-0 renal
[33] = test system: HCC-2998 colon
[34] = test system: NCI/ADR-RES ovarian
[35] = test system: SK-MEL-2 melanoma
[36] = test system: HT29 colon
[37] = test system: SNB-19 CNS
[38] = test system: SW-620 colon
[39] = test system: ACHN renal
[40] = test system: U251 CNS
[41] = test system: NCI-H226 lung
[42] = test system: NCI-H23 lung
[43] = test system: CAKI-1 renal
[44] = test system: HS 578T breast
[45] = test system: SK-OV-3 ovarian
[46] = test system: K-562 leukemia
[47] = test system: HCT-116 colon
[48] = test system: UACC-257 melanoma
[49] = test system: PC-3 prostate
[50] = test system: LOX IMVI melanoma
[51] = test system: SK-MEL-5 melanoma
[52] = test system: SF-268 CNS
[53] = test system: RPMI-8226 leukemia
[54] = test system: RXF 393 renal

With `O=C(CN(/C=C/C(=O)C(F)(F)F)c1ccc(Cl)cc1)c1ccc(Cl)cc1` the GI50 [1] was 16.6 µM, the TGI [1] was 39.5 µM and the GI50 [2] was 15.1 µM. For the same compound, the TGI [2] was 29.5 µM, the GI50 [3] was 19.2 µM and the TGI [3] was 36.9 µM. For the same compound, the GI50 [4] was 13.2 µM, the TGI [4] was 32.1 µM and the GI50 [5] was 10.8 µM. It also gave a TGI [5] of 26.9 µM, a GI50 [6] of 4.66 µM and a TGI [6] of 17.7 µM. It also gave a GI50 [7] of 15.5 µM, a TGI [7] of 50.8 µM and a GI50 [8] of 5.88 µM. The TGI [8] was 38.3 µM, the GI50 [9] was 2.1 µM and the TGI [9] was 5.93 µM. The GI50 [10] was 19.2 µM, the TGI [10] was 35.8 µM and the GI50 [11] was 32.8 µM. The TGI [11] was over 100 µM, the GI50 [12] was 1.79 µM and the TGI [12] was 7.96 µM. It also gave a GI50 [13] of 3.59 µM, a TGI [13] of 20.8 µM and a GI50 [14] of 4.78 µM. For the same compound, the TGI [14] was 19.3 µM, the GI50 [15] was 14.3 µM and the TGI [15] was 28.7 µM. It also gave a GI50 [16] of 16.1 µM, a TGI [16] of 32.9 µM and a GI50 [17] of 5.11 µM. For the same compound, the TGI [17] was 24.4 µM, the GI50 [18] was 17.6 µM and the TGI [18] was 43.9 µM. It also gave a GI50 [19] of 13.4 µM, a TGI [19] of 31.8 µM and a GI50 [20] of 4.52 µM. The TGI [20] was 17.3 µM, the GI50 [21] was 11.5 µM and the TGI [21] was 23.7 µM. It also gave a GI50 [22] of 11.9 µM, a TGI [22] of 35.3 µM and a GI50 [23] of 12 µM. The TGI [23] was 32.4 µM, the GI50 [24] was 13.5 µM and the TGI [24] was 26.9 µM. It also gave a GI50 [25] of 3.03 µM, a TGI [25] of 13.4 µM and a GI50 [26] of 8.82 µM. The TGI [26] was 37.4 µM, the GI50 [27] was 7.83 µM and the TGI [27] was 29 µM. For the same compound, the GI50 [28] was 12 µM, the TGI [28] was 24.8 µM and the GI50 [29] was 11.9 µM. It also gave a TGI [29] of 24.2 µM, a GI50 [30] of 6.83 µM and a TGI [30] of 20.4 µM. The GI50 [31] was 5.15 µM, the TGI [31] was 29.8 µM and the GI50 [32] was 18.6 µM. It also gave a TGI [32] of 65.1 µM, a GI50 [33] of 15.7 µM and a TGI [33] of 35 µM. For the same compound, the GI50 [34] was 9.07 µM, the TGI [34] was 37 µM and the GI50 [35] was 3.88 µM. The TGI [35] was 14.4 µM, the GI50 [36] was 7.41 µM and the TGI [36] was over 100 µM. It also gave a GI50 [37] of 11 µM, a TGI [37] of 31.2 µM and a GI50 [38] of 10.2 µM. The TGI [38] was 23.7 µM, the GI50 [39] was 8.01 µM and the TGI [39] was 20.7 µM. It also gave a GI50 [40] of 7.53 µM, a TGI [40] of 20.5 µM and a GI50 [41] of 14.8 µM. The TGI [41] was 29.4 µM, the GI50 [42] was 6.3 µM and the TGI [42] was 20.9 µM. The GI50 [43] was 1.98 µM, the TGI [43] was 9.5 µM and the GI50 [44] was 13.8 µM. For the same compound, the TGI [44] was 42.5 µM, the GI50 [45] was 17.9 µM and the TGI [45] was 33.5 µM. For the same compound, the GI50 [46] was 5.93 µM, the TGI [46] was 32.5 µM and the GI50 [47] was 4.09 µM. It also gave a TGI [47] of 20.7 µM, a GI50 [48] of 7.45 µM and a TGI [48] of 20.8 µM. For the same compound, the GI50 [49] was 12.9 µM, the TGI [49] was 26.5 µM and the GI50 [50] was 4.61 µM. It also gave a TGI [50] of 20.9 µM, a GI50 [51] of 11.6 µM and a TGI [51] of 24.3 µM. It also gave a GI50 [52] of 11.5 µM, a TGI [52] of 29.4 µM and a GI50 [53] of 11.5 µM. It also gave a TGI [53] of 37.7 µM, a GI50 [54] of 10.2 µM and a TGI [54] of 35.9 µM.
